Experimental data: patent US6514911B1, “Substituted oxadiazines useful as pesticides” (Uniroyal Chemical Company, Inc., priority 2002, dated 2003)

Key:
Format in all cases: in vivo
[1] = tested on: switchgrass (Panicum virgahim L.) (SG); test: Postemergence herbicide test, foliar spray, switchgrass; details: 3000 ppm foliar spray to drip point, treated six days after emergence, two weeks after treatment
Experimental: To illustrate the effectiveness of the previously described substituted oxadiazines of this invention as preemergence herbicides, 300 mg of the chemical was dissolved in a composition comprising 10 mL acetone to which 30 mg of tile emulsifying agent, ethoxylated sorbitan monolaurate, was added. The solution was diluted to 100 mL with distilled water. Ten milliliters of this 3000 ppm solution was diluted to 250 ppm with distilled water. The chemical was applied at the rate of 10 pounds/acre (11.2 kg/ha) by drenchings 46 mL of the 250 ppm solution on the surface of soil in 41⁄2 inch (11.25 cm) plastic pots wherein seeds of the following weeds had been planted: switchgrass (Panicum […].) (SG), To illustrate the effectiveness of the described substituted oxadiazines as postemergence herbicides, the 3000 ppm solution described under Example 5 was atomized with a conventional DeVilbissTM sprayer, wetting the foliage to the drip point. The weeds, which were the same species as described in Example 5, were treated six days after emergence. The percent weed control was evaluated two weeks after treatment.

[2] = tested on: velvetleaf (Abutilon theophrasti Medik.) (VL); test: Preemergence herbicide test, soil drench, velvetleaf; details: Abutilon theophrasti, 336 h, 10 lbs/A (11.2 kg/ha) soil drench, two weeks after treatment, vs untreated checks, read-out: Percent Weed Control VL
In short: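 Compound in acetone/ethoxylated sorbitan monolaurate, diluted to 250 ppm in water, was drenched onto the soil surface of pots sown with velvetleaf at 10 lb/acre (11.2 kg/ha). Percent control versus untreated checks was rated two weeks after treatment.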

[3] = tested on: barnyardgrass (Echinochloa crus-galli (L.) Beauv.) (BG); test: Preemergence herbicide test, soil drench, barnyardgrass; details: Echinochloa crus-galli, 336 h, 10 lbs/A (11.2 kg/ha) soil drench, two weeks after treatment, vs untreated checks, read-out: Percent Weed Control BG
In short: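 Compound formulated in acetone with ethoxylated sorbitan monolaurate, diluted to 250 ppm and drenched onto soil surface of seeded pots at 10 pounds/acre (11.2 kg/ha), preemergence. Percent weed control versus untreated checks scored two weeks after treatment.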

[4] = tested on: prickly sida (Sida spinosa L.) (PS); test: Postemergence herbicide test, foliar spray, prickly sida; details: 3000 ppm foliar spray to drip point, treated six days after emergence, two weeks after treatment
Experimental: To illustrate the effectiveness of the previously described substituted oxadiazines of this invention as preemergence herbicides, 300 mg of the chemical was dissolved in a composition comprising 10 mL acetone to which 30 mg of tile emulsifying agent, ethoxylated sorbitan monolaurate, was added. The solution was diluted to 100 mL with distilled water. Ten milliliters of this 3000 ppm solution was diluted to 250 ppm with distilled water. The chemical was applied at the rate of 10 pounds/acre (11.2 kg/ha) by drenchings 46 mL of the 250 ppm solution on the surface of soil in 41⁄2 inch (11.25 cm) plastic pots wherein seeds of the following weeds had been planted: prickly […] spinosa L.) (PS), To illustrate the effectiveness of the described substituted oxadiazines as postemergence herbicides, the 3000 ppm solution described under Example 5 was atomized with a conventional DeVilbissTM sprayer, wetting the foliage to the drip point. The weeds, which were the same species as described in Example 5, were treated six days after emergence. The percent weed control was evaluated two weeks after treatment.

[5] = tested on: barnyardgrass (Echinochloa crus-galli (L.) Beauv.) (BG); test: Postemergence herbicide test, foliar spray, barnyardgrass; details: 3000 ppm foliar spray to drip point, treated six days after emergence, two weeks after treatment
Experimental: (§1) To illustrate the effectiveness of the previously described substituted oxadiazines of this invention as preemergence herbicides, 300 mg of the chemical was dissolved in a composition comprising 10 mL acetone to which 30 mg of tile emulsifying agent, ethoxylated sorbitan monolaurate, was added. The solution was diluted to 100 mL with distilled water. Ten milliliters of this 3000 ppm solution was diluted to 250 ppm with distilled water. The chemical was applied at the rate of 10 pounds/acre (11.2 kg/ha) by drenchings 46 mL of the 250 ppm solution on the surface of soil in 4½ inch (11.25 cm) plastic pots wherein seeds of the following weeds had been planted: barnyardgrass (Echinochloa crus-galli (L.) Beauv.) (BG), and To illustrate the effectiveness of the described substituted oxadiazines as postemergence herbicides, the 3000 ppm solution described under Example 5 was atomized with a conventional DeVilbiss™ sprayer, wetting the foliage to the drip point. The weeds, which were the same species as described in Example 5, were treated six days after emergence. The percent weed control was evaluated two weeks after treatment.

[6] = tested on: velvetleaf (Abutilon theophrasti Medik.) (VL); test: Postemergence herbicide test, foliar spray, velvetleaf; details: 3000 ppm foliar spray to drip point, treated six days after emergence, two weeks after treatment
Experimental: as §1, with “velvetleaf (Abutilon theophrasti Medik.) (VL),” for “barnyardgrass (Echinochloa crus-galli (L.) Beauv.) (BG), and”

| SMILES | Percent Weed Control SG [1] [%] | pest or weed control at 11208.5 g/ha [2] [%] | pest or weed control at 11208.5 g/ha [3] [%] | Percent Weed Control PS [4] [%] | Percent Weed Control BG [5] [%] | Percent Weed Control VL [6] [%] |
| --- | --- | --- | --- | --- | --- | --- |
| FC(F)(F)C1=NC(C(F)(F)F)(C(F)(F)F)N=C(c2cccc(Cl)c2)O1 [Compound 4, 2-(3-chlorophenyl)-4,4,6-tris(trifluoromethyl)-4H-1,3,5-oxadiazine] | 80 | 100 | 100 | 90 | 100 | 50 |
| FC(F)(F)C(F)(F)C1=NC(C(F)(F)F)(C(F)(F)F)N=C(c2cccc(Cl)c2)O1 [Compound 13, 2-(3-chlorophenyl)-6-(pentafluoroethyl)-4,4-bis(trifluoromethyl)-4H-1,3,5-oxadiazine] | 90 | 100 | 100 | 100 | 80 | 100 |
| Fc1ccc(C2=NC(C(F)(F)F)(C(F)(F)F)N=C(C(F)(F)C(F)(F)F)O2)cc1Cl [Compound 20, 2-(3-chloro-4-fluorophenyl)-6-(pentafluoroethyl)-4,4-bis(trifluoromethyl)-4H-1,3,5-oxadiazine] | 30 | 100 | 100 | 70 | 30 | 70 |
| FC(F)(F)C(F)(F)C1=NC(C(F)(F)F)(C(F)(F)F)N=C(c2ccc(Cl)cc2)O1 [Compound 24, 2-(4-chlorophenyl)-6-(pentafluoroethyl)-4,4-bis(trifluoromethyl)-4H-1,3,5-oxadiazine] | 20 | 100 | 90 | 100 | 20 | 50 |
| FC(F)(F)C(F)(F)C1=NC(C(F)(F)F)(C(F)(F)F)N=C(c2ccc(Br)cc2)O1 [Compound 25, 2-(4-bromophenyl)-6-(pentafluoroethyl)-4,4-bis(trifluoromethyl)-4H-1,3,5-oxadiazine] | 0 | 100 | 90 | 100 | 50 | 100 |
